Assays:
Assay in all cases: relative viability (nuclei count vs DMSO), 5 days (fraction); higher = more cells survive
BAM7 + Foretinib = compound: CCOC1=CC=CC=C1N=NC2=C(NN(C2=O)C3=NC(=CS3)C4=CC=CC=C4)C [BAM7] + COc1cc2c(Oc3ccc(NC(=O)C4(C(=O)Nc5ccc(F)cc5)CC4)cc3F)ccnc2cc1OCCCN1CCOCC1 [Foretinib] (partner 0.25 µM)
Method in brief: (§1)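 The day after seeding in 1536-well plates, lung cancer cell lines were treated by pin tool with a single drug, or with a fixed anchor-drug dose together with five library-drug doses (not always all listed) in √10 steps. After 5 days, a combined fix-and-stain solution (final 0.05% Triton X-100, 1% formaldehyde, 1 ug/ml Hoechst) was added. Nuclei counted on 4× images gave relative viability as treated counts over vehicle counts, reported as the median of duplicate plates.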

BAM7 + Tozasertib = compound: CCOC1=CC=CC=C1N=NC2=C(NN(C2=O)C3=NC(=CS3)C4=CC=CC=C4)C [BAM7] + Cc1cc(Nc2cc(N3CCN(C)CC3)nc(Sc3ccc(NC(=O)C4CC4)cc3)n2)n[nH]1 [Tozasertib] (partner 0.1 µM)
Method in brief: as §1

[1] = compound: CCn1c(-c2nonc2N)nc2c(C#CC(C)(C)O)ncc(OC[C@H]3CCCNC3)c21 + CC(C)C[C@H](NC(=O)[C@H](Cc1ccccc1)NC(=O)c1cnccn1)B(O)O [Bortezomib] (partner 0.002 µM)
Method in brief: as §1

[2] = compound: CCn1c(-c2nonc2N)nc2c(C#CC(C)(C)O)ncc(OC[C@H]3CCCNC3)c21 + C[C@@H](Oc1cc(-c2cnn(C3CCNCC3)c2)cnc1N)c1c(Cl)ccc(F)c1Cl [Crizotinib] (partner 1 µM)
Method in brief: as §1

UMC-11 was tested, and the relative viability (BAM7 + Foretinib; first compound 0.5 µM) was 1.03, the relative viability (BAM7 + Foretinib; first compound 5 µM) was 1.09 and the relative viability (BAM7 + Foretinib; first compound 15.81 µM) was 1.13. It also gave a relative viability (BAM7 + Foretinib; first compound 50 µM) of 1.07, a relative viability (BAM7 + Tozasertib; first compound 0.5 µM) of 0.2 and a relative viability (BAM7 + Tozasertib; first compound 5 µM) of 0.202. It also gave a relative viability (BAM7 + Tozasertib; first compound 15.81 µM) of 0.196, a relative viability (BAM7 + Tozasertib; first compound 50 µM) of 0.198 and a relative viability ([1]; first compound 0.01 µM) of 0.676. It also gave a relative viability ([1]; first compound 0.03162 µM) of 0.905, a relative viability ([1]; first compound 0.1 µM) of 0.833 and a relative viability ([1]; first compound 0.3162 µM) of 0.48. The relative viability ([1]; first compound 1 µM) was 0.661, the relative viability ([2]; first compound 0.01 µM) was 0.704 and the relative viability ([2]; first compound 0.03162 µM) was 0.695. The relative viability ([2]; first compound 0.1 µM) was 0.65, the relative viability ([2]; first compound 0.3162 µM) was 0.645 and the relative viability ([2]; first compound 1 µM) was 0.547.
